From publication PMC5077133, “Towards Development of Small Molecule Lipid II Inhibitors as Novel Antibiotics” (PLoS ONE, 2016) come the findings set out here.

A short description of series [1]: Lipid II binding by Surface Plasmon Resonance. Particulars: SPR, immobilized 3-Lipid II, 25°C. The procedure: Short-chain water-soluble Lipid II containing a lipid tail of three isoprene units was generated and purified essentially as described. Typically, M. flavus vesicles (120 μmol lipid-Pi) were incubated together with 500 μmol UDP-GlcNAc, 500 μmol UDP-MurNAC-pentapeptide and 400 μmol farnesyl phosphate in 100 mM Tris-HCl pH 8.0, 5 mM MgCl2. The incubation lasted two hours at room temperature for 3-P. The synthesis of 3-Lipid II was followed using RP-8 reversed phase TLC (Merck) developed in 75% methanol. For purification, the membranes were removed by centrifugation at 40,000 x g and the supernatant was collected and loaded on a C18 HPLC column and eluted with a linear gradient from 50 mM ammonium bicarbonate to 100% methanol in 30 minutes. Farnesyl-Lipid II (3-Lipid II) eluted at approximately 60% methanol. Its identity was confirmed by mass spectroscopy. Surface Plasmon Resonance binding experiments were carried out on a BIAcore T100 system (BIAcore Inc., Piscataway, NY) at 25°C. The assay buffer was 10 mM HEPES, 150 mM NaCl, 0.05% surfactant P20, pH 7.4 (± 3 mM EDTA) supplemented with 10% DMSO. 3-Lipid II (50 RUs) was immobilized on CM5 sensor chips using the amine-coupling chemistry recommended by the manufacturer. For initial determination of binding, compounds were introduced into the flow-cells (30 μl/min) in the running buffer at 10 μM. Resonance signals were corrected for nonspecific binding by subtracting the background of the control flow-cell. After each analysis, the sensor chip surfaces were regenerated with 50 mM NaOH for 30 s at a flow rate 100 μl/min, and equilibrated with the buffer prior to next injection. For binding kinetics studies, binding isotherms were analyzed with manufacturer-supplied software for BIAcore T100.

Series [2] relates to A. baumanii ATCC 19606. Description: Antibacterial activity (MIC, broth dilution). Format: cell-based, Acinetobacter baumanii. Particulars: CLSI, in µg/mL. The source says: Staphylococcus aureus ATCC 29213, Escherichia coli ATCC 25922, Enterococcus faecalis ATCC 29212, Streptococcus pneumonia ATCC 49619 and Acinetobacter baumanii ATCC 19606 were obtained from Microbiologics (St. Cloud, MN). E. faecalis ATCC 51575, ATCC 51299 and REMEL C99707 and E. faecium ATCC 51559 (MDR), REMEL IH79985 and REMEL C110914 were generously provided by the Laboratory of Pathology, University of Maryland Baltimore School of Medicine. Unless stated otherwise, chemicals and reagents were purchased from Sigma.
(§1) Determination of the Minimal Inhibitory Concentrations (MIC) by dilution was carried out by broth dilution according to CLSI standards.

The test system of series [3] is HeLa cells. Description: Cytotoxicity against mammalian cells (MTS assay). The class given is cell-based. On the procedure:
The cytotoxicity concentration of antibacterial compounds that produces half maximal decrease in viability (CC50) against mammalian cells (HeLa, ATCC CCL-2.2) was determined as described. The effect of compounds on HeLa cell viability was assessed in triplicate by measuring the mitochondrial activity using MTS assays according to the manufacturer’s instructions (Cell Titer 96 proliferation assay, Promega). The cells were incubated for 72 hours in RPMI1640 medium containing the compounds at final concentrations ranging from 64 to 0.125 μg/ml. CC50 was determined using a standard curve of serially diluted untreated cells in each experiment.

Series [4] deals with P. aeruginosa X13273. Kind of series: Antibacterial activity (MIC, broth dilution). The class given is cell-based. The note with it: CLSI, in µg/mL. On the procedure:
as §1
A general note: Dilution methods test growth across graded concentrations, often in twofold steps.

Series [5] concerns K. pneumoniae NR-15410 (KPC). Description: Antibacterial activity (MIC, broth dilution). The class given is cell-based. The note with it: CLSI. On the procedure: as §1
The subject of series [6] is P. aeruginosa PA01. Kind of series: Antibacterial activity (MIC, broth dilution). Particulars: CLSI. The class given is cell-based. The procedure: as §1
Series [7] deals with E. faecium F118 (VRE). Description: Antibacterial activity (MIC, broth dilution). The class given is cell-based. Particulars: CLSI, in µg/mL. On the procedure: as §1
The test system of series [8] is K. pneumoniae NR-15411 (KPC). Kind of series: Antibacterial activity (MIC, broth dilution). Format: cell-based. Particulars: CLSI. The procedure:
as §1

The test system of series [9] is E. faecium EF1509 (VRE). Description: Antibacterial activity (MIC, broth dilution). The class given is cell-based. The note with it: CLSI, in µg/mL. On the procedure: as §1
In series [10] the test system is E. cloacae ATCC 13047. Kind of series: Antibacterial activity (MIC, broth dilution). Format: cell-based. Particulars: CLSI. The procedure:
as §1

Series [11] has as its system S. aureus MRSA 1094. Kind of series: Antibacterial activity (MIC, broth dilution). Format: cell-based. Particulars: CLSI. On the procedure: as §1
Series [12] relates to E. aerogenes ATCC 13048. Kind of series: Antibacterial activity (MIC, broth dilution). Format: cell-based. Particulars: CLSI. On the procedure:
as §1

Series [13] has as its system P. aeruginosa ATCC 27853. Description: Antibacterial activity (MIC, broth dilution). Format: cell-based. Particulars: CLSI. The procedure:
as §1

Series [14] concerns S. aureus HFH-30123 (MRSA). Kind of series: Antibacterial activity (MIC, broth dilution). Format: cell-based. Particulars: CLSI. On the procedure:
as §1

As to `CN(C)c1ccc(/C=C/C=C/c2cc(-c3ccccc3)cc(-c3ccccc3)[o+]2)cc1.F[B-](F)(F)F` [6jc43-1], binding in [1] was characterised by a dissociation constant (Kd) of 62 ± 6 µM. The “Antibacterial activity (MIC) A. baumanii ATCC 19606” value in series [2] came to 45.25. For the same molecule, in [3], the “CC50% (72 h HeLa cells)” value is 0.93. Moreover, in series [4], the “Antibacterial activity (MIC) P. aeruginosa X13273” value is recorded as “>=64”. The molecule also gave an Antibacterial activity (MIC) K. pneumoniae NR-15410 (KPC) in series [5] of at least 64 µg/mL. Besides, the Antibacterial activity (MIC) P. aeruginosa PA01 in series [6] is at least 64 µg/mL. Besides, in [7], the “Antibacterial activity (MIC) E. faecium F118 (VRE)” value was 4. The molecule further showed an Antibacterial activity (MIC) K. pneumoniae NR-15411 (KPC) in [8] of at least 64 µg/mL. The “Antibacterial activity (MIC) E. faecium EF1509 (VRE)” value in [9] worked out at 4. In series [10], the Antibacterial activity (MIC) E. cloacae ATCC 13047 was at least 64 µg/mL. Besides, in [11], the Antibacterial activity (MIC) S. aureus MRSA 1094 stood at 4 µg/mL. This molecule gave an Antibacterial activity (MIC) E. aerogenes ATCC 13048 in series [12] of at least 64 µg/mL. This molecule also registered an Antibacterial activity (MIC) P. aeruginosa ATCC 27853 in series [13] of at least 64 µg/mL. In addition, in [14], the Antibacterial activity (MIC) S. aureus HFH-30123 (MRSA) turned out to be 4 µg/mL.

Take `CN(C)c1ccc(/C=C/C=C/c2cc(-c3ccc(Cl)cc3)cc(-c3ccc(Cl)cc3)[o+]2)cc1.F[B-](F)(F)F` [6jc43-2]: the “Antibacterial activity (MIC) A. baumanii ATCC 19606” value in [2] is listed as “>=64”. For the same molecule, the “CC50% (72 h HeLa cells)” value in [3] is on record as over 32. Also, the “Antibacterial activity (MIC) P. aeruginosa X13273” value in series [4] is on record as “>=64”. Besides, the Antibacterial activity (MIC) K. pneumoniae NR-15410 (KPC) in series [5] is at least 64 µg/mL. The molecule also yielded an Antibacterial activity (MIC) P. aeruginosa PA01 in series [6] of at least 64 µg/mL. Also, the “Antibacterial activity (MIC) E. faecium F118 (VRE)” value in series [7] is listed as “>=64”. Further, the Antibacterial activity (MIC) K. pneumoniae NR-15411 (KPC) in [8] is at least 64 µg/mL. In addition, the “Antibacterial activity (MIC) E. faecium EF1509 (VRE)” value in series [9] is listed as 64. In series [10], this molecule showed an Antibacterial activity (MIC) E. cloacae ATCC 13047 of at least 64 µg/mL. In addition, the Antibacterial activity (MIC) S. aureus MRSA 1094 in [11] was at least 64 µg/mL. In addition, in series [12], the Antibacterial activity (MIC) E. aerogenes ATCC 13048 was at least 64 µg/mL. Also, in [13], the Antibacterial activity (MIC) P. aeruginosa ATCC 27853 was at least 64 µg/mL. The molecule also registered an Antibacterial activity (MIC) S. aureus HFH-30123 (MRSA) in series [14] of at least 64 µg/mL.

In the case of `Cc1ccc(-c2cc(/C=C/c3ccc(N(C)C)cc3)[o+]c(-c3ccc(C)cc3)c2)cc1.F[B-](F)(F)F` [6jc51-1], the Kd in series [1] is 9.2 ± 2 µM. Besides, the “Antibacterial activity (MIC) A. baumanii ATCC 19606” value in series [2] is recorded as 8. For the same molecule, in [3], the “CC50% (72 h HeLa cells)” value is listed as “<.78125”. For the same molecule, the “Antibacterial activity (MIC) P. aeruginosa X13273” value in series [4] was found to be 45.25. The molecule further had an Antibacterial activity (MIC) K. pneumoniae NR-15410 (KPC) in [5] of 16 µg/mL. In [6], the Antibacterial activity (MIC) P. aeruginosa PA01 worked out at 64 µg/mL. The “Antibacterial activity (MIC) E. faecium F118 (VRE)” value in [7] came out at 2. Further, the Antibacterial activity (MIC) K. pneumoniae NR-15411 (KPC) in series [8] turned out to be 64 µg/mL. For the same molecule, the “Antibacterial activity (MIC) E. faecium EF1509 (VRE)” value in [9] worked out at 0.5. This molecule had an Antibacterial activity (MIC) E. cloacae ATCC 13047 in series [10] of 64 µg/mL. The Antibacterial activity (MIC) S. aureus MRSA 1094 in series [11] is 1 µg/mL. In series [12], this molecule registered an Antibacterial activity (MIC) E. aerogenes ATCC 13048 of 64 µg/mL. In series [14], this molecule registered an Antibacterial activity (MIC) S. aureus HFH-30123 (MRSA) of 2 µg/mL.

As to `CCc1ccc(-c2cc(/C=C/c3ccc(N(C)C)cc3)[o+]c(-c3ccc(CC)cc3)c2)cc1.F[B-](F)(F)F` [6jc64-1], the “Antibacterial activity (MIC) A. baumanii ATCC 19606” value in [2] was found to be 16. Moreover, the “CC50% (72 h HeLa cells)” value in series [3] is listed as “<.78125”. The “Antibacterial activity (MIC) P. aeruginosa X13273” value in [4] is listed as “>=64”. In addition, in [5], the Antibacterial activity (MIC) K. pneumoniae NR-15410 (KPC) was at least 64 µg/mL. This molecule showed an Antibacterial activity (MIC) P. aeruginosa PA01 in [6] of at least 64 µg/mL. For the same molecule, in series [7], the “Antibacterial activity (MIC) E. faecium F118 (VRE)” value stood at 5.66. The Antibacterial activity (MIC) K. pneumoniae NR-15411 (KPC) in series [8] was at least 64 µg/mL. Besides, the “Antibacterial activity (MIC) E. faecium EF1509 (VRE)” value in [9] is 4. Moreover, the Antibacterial activity (MIC) E. cloacae ATCC 13047 in [10] is at least 64 µg/mL. The Antibacterial activity (MIC) S. aureus MRSA 1094 in series [11] turned out to be 4 µg/mL. The same molecule yielded an Antibacterial activity (MIC) E. aerogenes ATCC 13048 in [12] of at least 64 µg/mL. Also, in [13], the Antibacterial activity (MIC) P. aeruginosa ATCC 27853 was at least 64 µg/mL. In addition, in series [14], the Antibacterial activity (MIC) S. aureus HFH-30123 (MRSA) stood at 4 µg/mL.

A word on the Kd: it is the equilibrium constant for the complex coming apart.
